Consider 11 molecules from ChEMBL document CHEMBL1201862, “PubChem BioAssay data set” (2004).

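The compound was tested at five concentrations on cells cultured in 96-well plates, with a 48-hour exposure period. GI50 marks 50% less growth.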 Active and inactive are the calls of the source. Rule as the data show it: active = GI50 up to about 1.1 µM and inactive = higher.

Some test systems named below: NCI-H23; TK-10; RPMI-8226; SF-295; SF-539; ACHN; K562; HOP-92; OVCAR-3; OVCAR-8; NCI-H460; UO-31; SNB-75; SW-620; IGROV-1; SN12C; MCF7; MDA-N; MDA-MB-435; T47D.
Common to all, as to assay: NCI tumour cell line growth inhibition, 48 h

Consider `Cc1ccc(/C=C/C(=O)c2sc(-n3nc(-c4ccccc4)cc3-c3ccccc3)nc2C)cc1`, for which the GI50 is > 100 µM (inactive) in the assay with NCI-H23; > 100 µM (inactive) with TK-10; > 100 µM (inactive) in the assay on RPMI-8226; > 100 µM (inactive) in the assay with SF-295; > 100 µM (inactive) in the assay on SF-539; 65.8 µM (inactive) with ACHN. The GI50 in the assay with K562 is 77.8 µM (inactive); in the assay on HOP-92, > 100 µM (inactive); in the assay on OVCAR-3 it was > 100 µM (inactive); in the assay on OVCAR-8, > 100 µM (inactive); with NCI-H460, > 100 µM (inactive); in the assay with UO-31, > 100 µM (inactive). Besides, the GI50 in the assay on SNB-75 was 4.26 µM (inactive); in the assay with SW-620 it was > 100 µM (inactive); with IGROV-1, > 100 µM (inactive); with SN12C, > 100 µM (inactive).
For the molecule `CSC1NC(c2ccc(Cl)cc2)=C(C#N)C(=O)N1C1OCC(OC(C)=O)C(OC(C)=O)C1OC(C)=O` (centres undefined), the GI50 with NCI-H23 was > 100 µM (inactive); with TK-10 it was > 100 µM (inactive); in the assay on RPMI-8226, > 100 µM (inactive); in the assay with SF-295, > 100 µM (inactive); in the assay with SF-539 it was 67.3 µM (inactive); in the assay on ACHN, > 100 µM (inactive). For the same molecule, the GI50 in the assay on K562, with HOP-92, in the assay on MCF7, in the assay with OVCAR-3, in the assay on MDA-N and in the assay on OVCAR-8 was > 100 µM (inactive) in each case. For the same molecule, the GI50 is > 100 µM (inactive) with NCI-H460; 53.3 µM (inactive) with UO-31; > 100 µM (inactive) in the assay with SNB-75; > 100 µM (inactive) in the assay on SW-620; > 100 µM (inactive) with MDA-MB-435; > 100 µM (inactive) in the assay on IGROV-1. For the same molecule, the GI50 in the assay on SN12C is 45.1 µM (inactive).
`O=C(OC(=C(c1ccccc1)c1ccccc1)N1CCCC1=S)C(c1ccccc1)c1ccccc1`: the GI50 in the assay on NCI-H23 was 4.23 µM (inactive); with TK-10, > 10 µM (inactive); in the assay with RPMI-8226 it was 7.55 µM (inactive); in the assay with SF-295, > 10 µM (inactive); in the assay with SF-539 it was > 10 µM (inactive); with ACHN it was 5.07 µM (inactive). Besides, the GI50 with K562 is 3.88 µM (inactive); with MCF7, 7.67 µM (inactive); in the assay with OVCAR-3 it was 7.6 µM (inactive); in the assay with OVCAR-8 it was 7.96 µM (inactive); with NCI-H460, 3.58 µM (inactive); in the assay with T47D, 3.58 µM (inactive). The GI50 in the assay on UO-31 is > 10 µM (inactive); in the assay with SNB-75, 4.91 µM (inactive); in the assay on SW-620, > 10 µM (inactive); with MDA-MB-435, > 10 µM (inactive); with IGROV-1, > 10 µM (inactive); with SN12C it was > 10 µM (inactive).
On to `Cn1c(S)nc2c(Cl)cc(Cl)cc2c1=O`, for which the GI50 was > 100 µM (inactive) in the assay with NCI-H23; > 100 µM (inactive) in the assay on TK-10; > 100 µM (inactive) in the assay on SF-295; 42.8 µM (inactive) in the assay on SF-539; > 100 µM (inactive) in the assay with ACHN; 63.5 µM (inactive) in the assay on HOP-92. Moreover, the GI50 in the assay with MCF7 was 71.4 µM (inactive); with OVCAR-3 it was > 100 µM (inactive); in the assay with MDA-N, > 100 µM (inactive); in the assay with OVCAR-8 it was > 100 µM (inactive); in the assay with NCI-H460 it was > 100 µM (inactive); in the assay with UO-31, 64 µM (inactive). Moreover, the GI50 was 55.3 µM (inactive) with SNB-75; > 100 µM (inactive) in the assay on SW-620; > 100 µM (inactive) with MDA-MB-435; 80.5 µM (inactive) in the assay on IGROV-1; > 100 µM (inactive) in the assay on SN12C.
In the case of `CCN(CC)CCO/N=C1\CC[C@H]2[C@@H]3CC=C4C[C@@H](O)CC[C@]4(C)[C@H]3CC[C@]12C`, the GI50 is 16.2 µM (inactive) in the assay on NCI-H23; 27.6 µM (inactive) in the assay with TK-10; 16.9 µM (inactive) in the assay on RPMI-8226; 19.5 µM (inactive) with SF-295; 13.6 µM (inactive) in the assay on SF-539; 35.8 µM (inactive) with ACHN. For the same molecule, the GI50 in the assay with K562 was 7.98 µM (inactive); with MCF7, 16.6 µM (inactive); in the assay with OVCAR-3 it was 19.5 µM (inactive); in the assay on MDA-N, 23 µM (inactive); with OVCAR-8, 21.5 µM (inactive); in the assay with NCI-H460, 14.9 µM (inactive). Besides, the GI50 in the assay with UO-31 is 15.8 µM (inactive); in the assay on SNB-75 it was 26.4 µM (inactive); in the assay with SW-620, 15.1 µM (inactive); in the assay with MDA-MB-435, 17.3 µM (inactive); in the assay with IGROV-1, 31.8 µM (inactive); in the assay with SN12C it was 45.6 µM (inactive).
Regarding `Cc1ccc(S(=O)(=O)OC(COC(=O)c2ccccc2)C(OS(=O)(=O)c2ccc(C)cc2)C(OS(=O)(=O)c2ccc(C)cc2)C(COC(=O)c2ccccc2)OS(=O)(=O)c2ccc(C)cc2)cc1` (centres undefined), the GI50 in the assay with NCI-H23, in the assay with TK-10, in the assay with RPMI-8226, with SF-295, with SF-539 and with ACHN was > 100 µM (inactive) in each case. Also, the GI50 with K562, with HOP-92, with OVCAR-3, in the assay with OVCAR-8, in the assay with NCI-H460 and with UO-31 was > 100 µM (inactive) each time. For the same molecule, the GI50 with SNB-75 was 29.1 µM (inactive); in the assay with SW-620, > 100 µM (inactive); with IGROV-1 it was > 10 µM (inactive); in the assay on SN12C, > 100 µM (inactive).
With `O=C1/C(=C/c2ccco2)NC(=S)N1CN1CCOCC1`, the GI50 in the assay with NCI-H23, in the assay with TK-10, in the assay on RPMI-8226, in the assay on SF-295, with ACHN and in the assay on K562 was > 100 µM (inactive) each time. The GI50 in the assay with HOP-92, with MCF7, in the assay on OVCAR-3, with MDA-N, with OVCAR-8 and in the assay with UO-31 was > 100 µM (inactive) in each case. Also, the GI50 in the assay on SNB-75, in the assay on SW-620, in the assay on MDA-MB-435, in the assay with IGROV-1 and in the assay with SN12C was > 100 µM (inactive) in each case.
For `C=C1CC(C#N)(C#N)[C@@H]2CC3CCCC3[C@H]12.C=C1CC(C#N)(C#N)[C@H]2C3CCCC3C[C@@H]12` (some centres undefined), the GI50 in the assay on NCI-H23 is 10 µM (inactive); in the assay on TK-10, 35.1 µM (inactive); in the assay with SF-295 it was 18.3 µM (inactive); in the assay on SF-539, 19.9 µM (inactive); with ACHN it was 24.8 µM (inactive); with K562, 16.8 µM (inactive). Besides, the GI50 is 11.3 µM (inactive) in the assay on HOP-92; 16.3 µM (inactive) in the assay with MCF7; 19.3 µM (inactive) in the assay with OVCAR-3; 17.8 µM (inactive) in the assay with OVCAR-8; 10 µM (inactive) with NCI-H460; 31.9 µM (inactive) with T47D. The GI50 is 20.7 µM (inactive) in the assay with UO-31; 15 µM (inactive) with SW-620; 19.3 µM (inactive) in the assay with MDA-MB-435; 27.9 µM (inactive) in the assay with IGROV-1; 15.7 µM (inactive) with SN12C.
Consider `CCn1c(-c2ccc(C)cc2)cs/c1=N\C(P(=O)(O)O)P(=O)(O)O`, for which the GI50 in the assay on NCI-H23, in the assay with TK-10, in the assay with RPMI-8226, in the assay with SF-295, with SF-539 and with ACHN was > 100 µM (inactive) in each case. For the same molecule, the GI50 in the assay with K562, in the assay with HOP-92, in the assay with MCF7, in the assay with OVCAR-3, with MDA-N and in the assay with OVCAR-8 was > 100 µM (inactive) throughout. Further, the GI50 with NCI-H460, in the assay with UO-31, in the assay on SNB-75, in the assay on SW-620, in the assay with MDA-MB-435 and with IGROV-1 was > 100 µM (inactive) throughout.
Regarding `COc1c2nc(CCl)n(C)c(=O)c2c(OC)c2c(=O)n(C)c(CCl)nc12`, the GI50 in the assay with NCI-H23 is 1.62 µM (inactive); in the assay on TK-10, 0.447 µM (active); with RPMI-8226, 0.303 µM (active); with SF-295, 1.84 µM (inactive); with SF-539 it was 3.44 µM (inactive); with ACHN it was 1.19 µM (inactive). The GI50 with K562 was 0.689 µM (active); in the assay with HOP-92, > 100 µM (inactive); in the assay on MCF7, 0.48 µM (active); in the assay with OVCAR-3 it was 1.84 µM (inactive); with MDA-N, 1.49 µM (inactive); in the assay with OVCAR-8, 2.67 µM (inactive). The GI50 is 1.97 µM (inactive) with NCI-H460; 1.24 µM (inactive) in the assay with UO-31; 0.719 µM (active) in the assay on SNB-75; 1.1 µM (active) with SW-620; 2.11 µM (inactive) in the assay on MDA-MB-435; 1.94 µM (inactive) in the assay on IGROV-1. Moreover, the GI50 in the assay with SN12C is 1.69 µM (inactive).
`O=S(=O)(F)Cc1ccccc1` [PHENYLMETHYLSULFONYLFLUORIDE]: the GI50 in the assay on NCI-H23, with TK-10, in the assay with RPMI-8226, with SF-295, in the assay with SF-539 and with ACHN was > 100 µM (inactive) each time. Moreover, the GI50 in the assay on K562, in the assay with HOP-92, in the assay on MCF7, in the assay on OVCAR-3, in the assay on MDA-N and in the assay with OVCAR-8 was > 100 µM (inactive) in each case. Also, the GI50 in the assay on NCI-H460, with UO-31, in the assay on SNB-75, in the assay on SW-620, in the assay with MDA-MB-435 and in the assay on IGROV-1 was > 100 µM (inactive) throughout. Also, the GI50 in the assay on SN12C was > 100 µM (inactive).
